≈ marks a conversion by molar mass, not a printed value.
Columns and labels:
S. aureus = experiment: MIC by broth macrodilution in glass tubes; type: cell-based
Procedure: In this experiment, MICs were determined by broth macrodilution in 1 ml final volumes in glass tubes. Otherwise, the methodology was as described above.

S. aureus Smith = experiment: Acute S. aureus infection model in mice (survival); type: in vivo
Procedure: The efficacy of lysostaphin was compared to that of vancomycin in an acute infection model in mice. S. aureus Smith was cultured overnight, with moderate agitation, in Veal Infusion broth (Difco) and diluted in broth containing 5% hog gastric mucin (Difco). Male Swiss-Webster mice (Taconic Farms, Germantown, N.Y.) weighing approximately 20 grams were infected intraperitoneally with 10^5-10^6 viable cells, approximately tenfold the inoculum that reproducibly killed all untreated animals within 48 h. There were six mice in each treatment group. Lysostaphin was administered intravenously (in 0.1 ml 5% dextrose for injection) or subcutaneously (in 0.2 ml), within 10 min of infection. Vancomycin was administered subcutaneously.

[1] = test system: methicillin-resistant VISA strain of S. aureus; experiment: Vancomycin MIC for the laboratory-selected VISA strain; type: cell-based; conditions: Staphylococcus aureus, variant strain selected after cycles of growth in glycopeptide-containing medium
Procedure: Strains that are both methicillin-resistant and resistant to vancomycin are a newly emerging problem. A variant strain of this type was selected after cycles of growth in glycopeptide-containing medium. The vancomycin MIC for the resulting strain was 8 μg/ml, as reported also for naturally occurring VISA strains isolated from patients in the U.S. and Japan. (Centers for Disease Control and Prevention, Morbidity and Mortality Weekly Report 1997; 46:813-815). Staphylococcal isolates are considered to be susceptible to vancomycin if the MIC is less than or equal to 4 μg/ml and to be completely resistant if the MIC is greater than or equal to 32 μg/ml (National Committee for Clinical Laboratory Standards, 1993. Approved Standard M2-A5. Performance standards for antimicrobial disk susceptibility tests—Fifth edition. National Committee for Clinical Laboratory Standards, Villanova, Pa.)

S. aureus strain AG461 [2] = experiment: Time-kill experiment, S. aureus AG461 (FIG. 1); type: cell-based; conditions: 2 and 16 μg/ml (1x and 8x MIC), three hours of contact
Procedure: The bactericidal activity of lysostaphin against S. aureus was also studied by means of time-kill experiments. In one experiment of this type, S. aureus strain AG461, a methicillin-resistant clinical isolate from Genoa, Italy, was inoculated into Mueller-Hinton broth (Difco) and grown at 37° C. with gentle shaking until it reached approximately 10^8 viable cells per ml (CFU/ml), as estimated from the absorbance of the culture at 600 nm. The culture was then diluted with fresh broth to approximately 10^6 CFU/ml and 5 ml aliquots were placed in several different flasks for exposure to different concentrations of antibacterial agents. Incubation was continued, with gentle shaking, at 37° C., and samples were withdrawn at intervals for determination of viable cells. Serial 10-fold dilutions of the samples were made in sterile saline (0.9% NaCl in distilled water) and duplicate 0.1 ml aliquots of appropriate dilutions were plated on Tryptic Soy agar plates (Remel) using the agar inclusion method. (In this method, the aliquot to be plated is added to 2.5 ml of top agar, which is mixed and poured onto a plate. Top agar consisted of molten Tryptic Soy agar (Difco) diluted 2-fold with Difco Tryptic Soy broth to give a final agar concentration of 0.75%, w/v.) The plates were incubated for 24-48 hours at 36° C. and the colonies were counted manually. […]

S. aureus strain AG461 [3] = conditions: strain AG461 (methicillin-resistant clinical isolate)
Description: The different concentrations of lysostaphin and vancomycin used were one and eight times their respective MIC.

Molecule | MIC (S. aureus; strain AG402 (clinical isolate)) | MIC (S. aureus; strain AG404 (clinical isolate, methicillin-resistant)) | MIC (S. aureus; strain AG414) | MIC (S. aureus; strain AG417) | % survival (S. aureus Smith; Table 4 experiment, dose 0.08 mg/kg) [%] | % survival (S. aureus Smith; Table 4 experiment, dose 0.16 mg/kg) [%] | % survival (S. aureus Smith; Table 4 experiment, dose 0.31 mg/kg) [%] | % survival (S. aureus Smith; Table 4 experiment, dose 0.63 mg/kg) [%] | MIC [1] [µg/mL] | bactericidal action (killing of the bacteria) (S. aureus strain AG461 [2]) | MIC (lower time-kill concentration stated to be one times MIC) (S. aureus strain AG461 [3]) [µg/mL] | % survival (S. aureus Smith; 5 mg/kg sc) [%]
Gly218Asp: lysostaphin variant with a single change, glycine to aspartic acid, at position 218 of the mature protein | .06 µg/mL | .06 µg/mL | .03 µg/mL | .03 µg/mL | 0 | 17 | 33 | 83 |  |  |  | 
CN[C@H](CC(C)C)C(=O)N[C@H]1C(=O)N[C@@H](CC(N)=O)C(=O)N[C@H]2C(=O)N[C@H]3C(=O)N[C@H](C(=O)N[C@H](C(=O)O)c4cc(O)cc(O)c4-c4cc3ccc4O)[C@H](O)c3ccc(c(Cl)c3)Oc3cc2cc(c3O[C@@H]2O[C@H](CO)[C@@H](O)[C@H](O)[C@H]2O[C@H]2C[C@](C)(N)[C@H](O)[C@H](C)O2)Oc2ccc(cc2Cl)[C@H]1O [vancomycin, reference compound] |  |  |  |  |  |  |  |  | 8 (≈ 5.52 µM) | very little killing | 2 (≈ 1.38 µM) | 100

Reference: US20020006406A1, “METHOD FOR THE TREATMENT OF STAPHYLOCOCCAL DISEASE” (priority 1997, published 2002)
